The values below come from US20040039014A1, “Methods and compounds for treating depression and other disorders” (NPS Pharmaceuticals, Inc., priority 1998, published 2004).

Where a name gives a salt, the structure may show the parent alone. Marks after values point to notes of the source that are not given here.

One test relates to male Sprague-Dawley rats. The experiment in a line: Rat forced-swim test (FST). The following applies: Table VI, 60 minutes prior to testing, saline control 47.9. In kind it is in vivo. As for the experimental part: For the mouse and rat forced-swim tests, male pathogen-free NIH-Swiss mice (Harlan Sprague-Dawley) weighing between 22-25 g, and male pathogen-free Sprague-Dawley rats (Harlan Sprague-Dawley) weighing between 320-350 g were used. Animals were removed from the housing room to the testing area in their own cages and allowed to adapt to the new environment for at least 1 hour before testing. Mice were administered either drug (imipramine, 10 mg/kg i.p.; or Compound 60, various p.o or i.p. doses) or saline. Thirty minutes to 24 hours later, mice were placed individually in cylinders (diameter: 10 cm; height: 25 cm) filled with 6 cm of water (22-25° C.) for 6 minutes. The duration of immobility during the last 4 minutes of the 6 minute test was scored. A mouse was recorded as immobile when floating motionless or making only those movements necessary to keep its head above water. Results were expressed as the duration of immobility (seconds).
The rat forced-swim test was conducted over two days. On treatment Day 1, rats were placed individually in cylinders (diameter: 18 cm; height: 40 cm) filled with water (22-25° C.) to a depth of 15 cm for 15 minutes. The duration of immobility during the first 5 minutes was scored. After testing, the rats were dried with paper towels and placed in holding cages. Five minutes after removal from the testing cylinders, animals received either drug (imipramine, 10 mg/kg i.p.; or Compound 60, various p.o. doses) or saline (p.o.). Ten minutes later, the rats were returned to their home cages. […] The duration of immobility during the first 5 minute period was recorded. A rat was recorded as immobile when floating motionless or making only those movements necessary to keep its head above water. […]

For test [1], the target named is T1, dopamine transporter site (Cavia porcellus, UniProt H0WCX4).
T1 construct: tissue NovaScreen (performed the assay); host or cells: guinea pig striatal membranes
The experiment in a line: Dopamine reuptake inhibition assay ([3H]WIN 35428 binding, guinea pig striatal membranes). The following applies: Table I; read-out: DA Uptake Ki. The procedure:
Monoamine Transporter Minding Assays
Monoamine transporter binding assays (reuptake inhibition assays) were performed by NovaScreen using standard radioligand binding assays. The transporter binding assays are described briefly below:
Dopamine Reuptake Inhibition Assay:
Reactions were terminated by rapid vacuum filtration onto glass fiber filters. Bound radioactivity was determined using liquid scintillation spectrometry and experimental values were compared to control values to determine binding to the dopamine transporter site based on Madras, et al., Molec.

For another test, the system named is male C57BL/6 mice. Put plainly: Mouse tail-suspension test (TST) with Compound 60. In kind it is in vivo. The conditions noted are these: for Mean duration of immobility: Table VII, 5 mg/kg p.o. single dose, saline control 154.9. As for the experimental part: For the mouse tail-suspension test with Compound 60, male pathogen-free C57BL/6 mice (Harlan Sprague-Dawley) weighing between 22-25 g were used. Animals were removed from the housing room to the testing area in their own cages and allowed to adapt to the new environment for at least 1 hour before testing. Mice were administered either drug (imipramine, 15 mg/kg i.p.; or Compound 60, various p.o. doses) or saline. Thirty minutes to 24 hours later, the mice were suspended on the edge of a shelf 80 cm above the floor in the testing room by adhesive tape placed approximately 1 cm from the tip of the tail. The duration of immobility was recorded during a test period of 5 minutes. Mice were considered immobile only when they hung passively and completely motionless. Results were expressed as the duration of immobility (sec).

A further test has as its target T2, NMDA receptor.
T2 construct: rat cortex membranes
The experiment in a line: [3H]MK-801 binding assay (rat cortex synaptic plasma membranes). The following applies: read-out: [3H]MK-801 data IC50, Table I. As for the experimental part: Synaptic plasma membranes (SPMs) from rat cortex were prepared as follows. Isolated cerebral cortices from male and female rats were purchased from Pel-Freez (Rogers, Ariz.) in bulk, and stored at −80° C. The cortices from 25 rats were thawed and pooled. […] The resulting homogenates were centrifuged for 10 min at 1,000×g in a T865 rotor, UltraPro80 Sorvall Centrifuge. The supernatant was removed and subsequently centrifuged at 30,000×g for 30 min. […] Membranes were washed by re-suspension in 500 ml of 5 mM K-EDTA (pH 7.0), incubated at 32° C. for 30 min with stirring, and centrifuged at 100,000×g for 30 min. The final pellet was resuspended in 60 ml of […] K-EDTA (pH 7.0) and stored in aliquots at −80° C. The extensive washing procedure utilized in this assay was designed to minimize the concentrations of glutamate and glycine (co-agonists at the NMDA receptor-ionophore complex) present in the membrane preparation.
On the day of assay, aliquots of SPM were thawed and resuspended in 75 vols of 5 mM K-EDTA, pH 7.0. SPM were centrifuged at 100,000×g for 30 min at 4° C.
The SPM pellet was resuspended in assay buffer (30 mM EPPS, 1 mM K-EDTA, pH 7.0) by polytron. […] Binding was started by the addition of the tissue homogenate. The assay was terminated by the addition of 4 ml ice-cold buffer, followed by filtration over glass-fiber filters (Schleicher & Schuell No. 30) on a Millipore 12-well filtration manifold. Filters were washed with another 3 ×4 ml ice-cold buffer (pH 7.0). Radioactivity on the filters was measured using Fisherbrand Scinti-Safe scintillation cocktail. Samples were shaken for 45-60 min on a shaker platform to solubilize the radioactivity. Counting for ^3H was performed in a Beckman 6000IC LS Scintillation Counter for 4 min per sample.

T1 sequence (H0WCX4 1-619): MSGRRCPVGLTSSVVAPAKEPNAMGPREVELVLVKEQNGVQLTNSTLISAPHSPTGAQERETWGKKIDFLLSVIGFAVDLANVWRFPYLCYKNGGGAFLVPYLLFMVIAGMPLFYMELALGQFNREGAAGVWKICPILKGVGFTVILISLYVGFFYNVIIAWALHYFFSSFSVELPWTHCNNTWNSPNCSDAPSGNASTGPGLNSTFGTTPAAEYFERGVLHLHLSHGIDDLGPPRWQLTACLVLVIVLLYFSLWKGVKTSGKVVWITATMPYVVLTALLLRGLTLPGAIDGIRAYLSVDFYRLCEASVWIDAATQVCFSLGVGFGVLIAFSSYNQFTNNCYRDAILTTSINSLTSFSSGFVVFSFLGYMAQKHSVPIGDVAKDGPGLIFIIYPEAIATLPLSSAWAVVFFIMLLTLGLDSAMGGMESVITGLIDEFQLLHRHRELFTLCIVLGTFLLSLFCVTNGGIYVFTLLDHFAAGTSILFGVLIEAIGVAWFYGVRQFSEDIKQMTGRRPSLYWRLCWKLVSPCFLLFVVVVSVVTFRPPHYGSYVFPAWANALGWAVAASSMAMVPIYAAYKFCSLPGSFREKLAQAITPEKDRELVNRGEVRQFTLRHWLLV

For `CNCCC(c1cccc(F)c1)c1cccc(F)c1` [Compound 60, N-Methyl-3.,3-bis(3-fluorophenyl)propylamine hydrochloride], the “Mean Change in the Duration of Immobility (Day 2 minus Day 1)” value was 29.7 s with male Sprague-Dawley rats (1.25 mg/kg oral), −24.8* sec with male Sprague-Dawley rats (2.5 mg/kg oral) and −28.8* sec in the test on male Sprague-Dawley rats (5 mg/kg oral). Moreover, the Ki in test [1] worked out at 914 nM. The “Duration of Immobility” value with male C57BL/6 mice (Table IX (experiment #2), 0.625 mg/kg single oral dose 60 minutes prior to testing, saline control 149.1) was 143.3 s; in the test on male C57BL/6 mice (Table IX (experiment #2), 1.25 mg/kg single oral dose 60 minutes prior to testing, saline control 149.1), 125.8 s; in the test with male C57BL/6 mice (Table IX (experiment #2), 2.5 mg/kg single oral dose 60 minutes prior to testing, saline control 149.1), 69.6* sec; with male C57BL/6 mice (Table IX (experiment #2), 5 mg/kg single oral dose 60 minutes prior to testing, saline control 149.1), 69.5* sec; in the test with male C57BL/6 mice (Table IX (experiment #2), 10 mg/kg single oral dose 60 minutes prior to testing, saline control 149.1), 15.6* sec; with male C57BL/6 mice (Table VIII (experiment #1), 2.5 mg/kg single oral dose 60 minutes prior to testing, saline control 210.1), 130.7* sec. The “Duration of Immobility” value was 123.5* sec with male C57BL/6 mice (Table VIII (experiment #1), 5 mg/kg single oral dose 60 minutes prior to testing, saline control 210.1) and 47.8* sec with male C57BL/6 mice (Table VIII (experiment #1), 10 mg/kg single oral dose 60 minutes prior to testing, saline control 210.1). Besides, the “Mean duration of immobility” value with male C57BL/6 mice (time post-dose 0.5) was 84.9* sec; in the test with male C57BL/6 mice (time post-dose 1), 74.7* sec; in the test on male C57BL/6 mice (time post-dose 2), 93.0* sec; in the test on male C57BL/6 mice (time post-dose 4), 109.7 s; with male C57BL/6 mice (time post-dose 6), 125.5 s; in the test on male C57BL/6 mice (time post-dose 24), 177.7 s. Further, the “time of peak effect (reduction in the duration of immobility) post-dosing” value in the test on male C57BL/6 mice (mouse TST, single 5-mg/kg oral dose) is 60 min. For the same molecule, at NMDA receptor, the IC50 stood at 641 nM.
